Experiments:
Assay type in all cases: cell-based
[1] = system: S. cerevisiae strain YPH499; assay: Growth of white colonies on glycerol (nonfermentable carbon source) agar
Experimental: (§1) FIGS. 1A and 1B show visual color identification of mitochondrial dysfunction. The wild type S. cerevisiae YPH499 was gown in YPD (1% yeast extract, 2% bactopeptone and 2% dextrose) to log phase at 30° C. The log phase culture was centrifuged, resuspended in water containing adriamycin (150 μg/ml) for one hour. Appropriate dilutions of the culture were plated on YPD agar and incubated at 30° C. for 3-4 days. […] FIG. 1B: white colonies from treated cells in FIG. 1A wee replicated on to agar medium containing 2% dextrose (left) and 2% glycerol (right).
(§2) The yeast S. cerevisiae strain YPH499 (a ura3-52, lys2-801, ade2-101, trpl-63, his3-200, leul-1) was grown in YPD to log phase. Cell were then harvested and suspended in water containing various concentration of adriamycin for one hour. In order to test whether white colonies were defective in mitochondrial function, we transferred the colonies to an agar media containing glycerol (nonfermentable carbon source). Utilization of glycerol by an eukaryotic cell requires intact mitochondrial function (2). […] The number of surviving colonies that were white reached about 30% at 150 μglml concentration.

[2] = system: mitDNA of S. cerevisiae white colonies
Experimental: FIGS. 3A-3D show mitochondrial genome changes induced by adriamycin. Various white S. cerevisiae colonies produced after treatment with adriamycin were grown to log phase and stained with DAPI, which stains DNA. FIG. 3A: wild type; FIG. 3B: a Rho^0 strain (devoid of mitochondrial genome); FIG. 3C: a representative white cell lacking mitochondrial genome; and FIG. 3D: a representative cell containing mutant mitochondrial DNA.
White S. cerevisiae colonies produced after treatment with physical or chemical agents were grown to log phase and stained with DAPI. FIG. 6A: Wild type; FIG. 6B: A Rho^0 strain; FIG. 6C: adriamycin; FIG. 6D: hydrogen peroxide; FIG. 6E: UV; FIG. 6F: Methylmethane sulfonate. For FIGS. 6C-F, the cells on the right contains mutant mitDNA and the cell on the left lacks a mitochondrial genome.
DNA was stained with a fluorescent dye, 4,6-diamidino-2-phenylindole (DAPI)(2). […] In this study, a known yeast strain lacking mitDNA (Rho^0) served as a negative control (FIG. 3B, only nuclear DNA is stained).

[3] = system: S. cerevisiae strain YPH499; assay: Colorimetric test: red to white colony colour change on YPD agar after treatment
Experimental: as §1
The wild type S. cerevisiae YPH499 was grown in YPD to log phase at 30° C. The culture was centrifuged, resuspended in water containing various concentrations of adriamycin as indicated for one hour. Appropriate dilutions of the culture were plated on YPD agar and incubated at 30° C. Colonies were counted after 3-4 days. Values presented are the average of four determinants.
FIGS. 5A, 5B, and 5C show the percentage of white colonies produced after treatment with physical or chemical agents. Exponentially growing cells were treated with various doses of UV (FIG. 5A) or various lengths of time (MMS (FIG. 5B) and H2O2 (FIG. 5C)). For UV treatment appropriate dilutions of culture were plated on YPD agar and exposed to UV using STRATALINKER (Stratagene). For MMS and H2O2 treatments, cells were exposed in liquid YPD medium.
as §2

[4] = system: S. cerevisiae diploid cells (white colonies x Rho0); assay: Mating of haploid white colonies with Rho0 strain YPH 500, growth of diploids on glycerol medium; settings: a total of 143 diploid cells from white colonies after adriamycin treatment mated with Rho0 (FIG. 4)
Experimental: FIGS. 4A and 4B show growth comparison of haploid and diploid S. cerevisiae cells. FIG. 4A: Various white colonies produced after treatment with adriamycin were streaked on YP glycerol plates. FIG. 4B: The same white colonies were mated with an opposite mating type strain of yeast lacking mitochondrial DNA on YPD plates. The diploid yeast strains were tested for growth on YP glycerol medium.
The genetic approach employed involved mating haploid white colonies generated after adriamycin treatment (shown in FIG. 2, “a” mating type) with a haploid Rho^0 strain (of opposite mating type “α” YPH 500 (ura3-52, lys2-801, ade2-101, trpl-63, his3-200, leu2-1) lacking mitDNA (3). The diploid cells (a total of 143) were tested for growth on glycerol medium. If the white cells contained a mutation in a nuclear gene affecting the mitochondrial function, it can be expected that diploid cells will grow on glycerol because a nuclear defect can be complemented with Rho^0 (because it contains intact nuclear DNA but lacks mitDNA). […] Together, these studies indicate that adriamycin preferentially damages mitDNA. This preferential damage by adriamycin can result either in complete loss of mitDNA (due to severe damage) and/or mutations in mitDNA (due to minor damage FIG. 3).

COc1cccc2c1C(=O)c1c(O)c3c(c(O)c1C2=O)C[C@@](O)(C(=O)CO)C[C@@H]3O[C@H]1C[C@H](N)[C@H](O)[C@H](C)O1 [adriamycin]
growth of randomly chosen white colonies on glycerol plates ([1]; white colonies obtained after adriamycin treatment (FIG. 1B)): none were able to grow | DAPI DNA staining of white colonies (mitDNA present or lost) ([2]; white colonies obtained after adriamycin treatment (FIG. 3)): two types of DNA staining | number of surviving colonies that were white ([3]; adriamycin 150 μglml in water for one hour, plated on YPD agar, 30° C., 3-4 days): about 30% | white colonies versus dose ([3]; various concentrations of adriamycin in water for one hour (FIG. 2)): increase number of white colonies with increasing dose | growth of diploid cells on glycerol medium [4]: none grew on glycerol medium

COS(C)(=O)=O [MMS, methyl methane sulphonate]
growth of white colonies on glycerol [1]: do not grow on glycerol | microscopic and genetic tests of white colonies (mitDNA status) ([2]; white colonies obtained after treatment with physical or chemical agents (FIG. 6)): either contained mutant mitDNA or lacked mitDNA at all | increase in white colonies [3]: did

OO [H2O2, hydrogen peroxide]
increase in white colonies [3]: did not result in increased white colonies
